Data published in US11033539B2, “Compounds of formulas (VII), (VIII), (IX), (XI), (XII), (XIII), and (XIV) as muscarinic receptor 4(M4) antagonists for treating neurological diseases” (Neurocrine Biosciences, Inc., priority 2015, dated 2021).

What was measured:
human M4 receptor = human M4 receptor (Homo sapiens (Human), UniProt P08173); experiment: Radioligand (tritiated N-methylscopolamine) binding assay, M4; details: Ki against the M4 receptor; membranes from CHO cells expressing human M4; tritiated N-methylscopolamine 1.5 nM; read-out: Ki
In short: (§1)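 Membranes came from recombinant CHO cells expressing human muscarinic subtypes and were incubated with compound and [3H]NMS (1.5 nM) in HEPES/NaCl/MgCl2/EDTA buffer, pH 7.4, at 37° C for 90 min. Twelve-point dose-response (printed 10–[…]). Filter-bound radioactivity was counted and Ki values derived.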

human M3 receptor = human M3 receptor (Homo sapiens (Human), UniProt P20309); experiment: Radioligand (tritiated N-methylscopolamine) binding assay, M3; details: CHO cell membranes expressing human M3; 1.5 nM tritiated N-methylscopolamine; 90 min, 37° C.; read-out: Ki against M3 receptor (Table 21, M3)
In short: as §1

human M5 receptor = human M5 receptor (Homo sapiens (Human), UniProt P08912); experiment: Radioligand (tritiated N-methylscopolamine) binding assay, M5; details: CHO cell membranes expressing human M5; 1.5 nM tritiated N-methylscopolamine; 90 min, 37° C.; read-out: Ki against M5 receptor (Table 21, M5)
In short: as §1

human M2 receptor = human M2 receptor (Homo sapiens (Human), UniProt P08172); experiment: Radioligand (tritiated N-methylscopolamine) binding assay, M2; details: CHO cell membranes expressing human M2; 1.5 nM tritiated N-methylscopolamine; 90 min, 37° C.; read-out: Ki against M2 receptor (Table 21, M2)
In short: as §1

human M1 receptor = human M1 receptor (Homo sapiens (Human), UniProt P11229); experiment: Radioligand (tritiated N-methylscopolamine) binding assay, M1; details: CHO cell membranes expressing human M1; 1.5 nM tritiated N-methylscopolamine; 90 min, 37° C.; read-out: Ki against M1 receptor (Table 21, M1)
In short: as §1

human M4 receptor, sequence (P08173 whole entry): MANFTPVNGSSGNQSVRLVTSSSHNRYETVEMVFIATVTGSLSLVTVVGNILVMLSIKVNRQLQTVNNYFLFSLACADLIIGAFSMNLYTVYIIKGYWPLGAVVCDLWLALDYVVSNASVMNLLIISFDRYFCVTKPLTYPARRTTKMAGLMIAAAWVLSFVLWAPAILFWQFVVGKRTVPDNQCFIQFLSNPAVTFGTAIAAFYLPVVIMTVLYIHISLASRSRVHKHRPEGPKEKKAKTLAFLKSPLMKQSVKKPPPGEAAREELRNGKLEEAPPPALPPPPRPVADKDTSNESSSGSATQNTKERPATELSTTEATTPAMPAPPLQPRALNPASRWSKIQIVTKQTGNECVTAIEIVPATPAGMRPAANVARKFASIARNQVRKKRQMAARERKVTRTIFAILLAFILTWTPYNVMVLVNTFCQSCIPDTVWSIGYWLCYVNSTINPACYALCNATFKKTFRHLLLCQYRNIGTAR
human M2 receptor, sequence (P08172 whole entry): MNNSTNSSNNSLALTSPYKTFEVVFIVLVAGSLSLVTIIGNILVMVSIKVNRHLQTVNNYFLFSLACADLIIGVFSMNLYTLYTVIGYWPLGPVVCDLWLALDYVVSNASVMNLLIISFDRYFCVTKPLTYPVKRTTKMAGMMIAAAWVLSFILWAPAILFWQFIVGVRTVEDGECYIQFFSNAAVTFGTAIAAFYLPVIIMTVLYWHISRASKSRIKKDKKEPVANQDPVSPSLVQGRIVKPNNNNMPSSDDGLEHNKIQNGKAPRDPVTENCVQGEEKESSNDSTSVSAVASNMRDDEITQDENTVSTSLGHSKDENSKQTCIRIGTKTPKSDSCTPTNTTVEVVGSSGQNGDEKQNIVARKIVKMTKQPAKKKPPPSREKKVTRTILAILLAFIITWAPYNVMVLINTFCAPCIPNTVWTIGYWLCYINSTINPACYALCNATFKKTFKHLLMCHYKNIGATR
human M3 receptor, sequence (P20309 whole entry): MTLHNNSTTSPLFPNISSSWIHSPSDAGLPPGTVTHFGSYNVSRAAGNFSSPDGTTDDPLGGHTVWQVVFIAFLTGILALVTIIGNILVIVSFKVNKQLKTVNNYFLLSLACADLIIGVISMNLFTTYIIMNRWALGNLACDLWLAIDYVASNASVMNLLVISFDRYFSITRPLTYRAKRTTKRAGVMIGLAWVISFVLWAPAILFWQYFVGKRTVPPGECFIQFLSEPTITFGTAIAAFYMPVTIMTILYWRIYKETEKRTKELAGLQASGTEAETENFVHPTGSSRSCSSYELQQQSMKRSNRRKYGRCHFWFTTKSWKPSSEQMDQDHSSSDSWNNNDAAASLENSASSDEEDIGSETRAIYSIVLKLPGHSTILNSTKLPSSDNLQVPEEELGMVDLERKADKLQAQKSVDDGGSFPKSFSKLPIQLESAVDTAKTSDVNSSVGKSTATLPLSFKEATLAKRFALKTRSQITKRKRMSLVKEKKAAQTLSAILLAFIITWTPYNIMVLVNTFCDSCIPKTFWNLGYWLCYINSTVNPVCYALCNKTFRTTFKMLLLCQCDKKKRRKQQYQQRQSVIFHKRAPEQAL
human M1 receptor, sequence (P11229 whole entry): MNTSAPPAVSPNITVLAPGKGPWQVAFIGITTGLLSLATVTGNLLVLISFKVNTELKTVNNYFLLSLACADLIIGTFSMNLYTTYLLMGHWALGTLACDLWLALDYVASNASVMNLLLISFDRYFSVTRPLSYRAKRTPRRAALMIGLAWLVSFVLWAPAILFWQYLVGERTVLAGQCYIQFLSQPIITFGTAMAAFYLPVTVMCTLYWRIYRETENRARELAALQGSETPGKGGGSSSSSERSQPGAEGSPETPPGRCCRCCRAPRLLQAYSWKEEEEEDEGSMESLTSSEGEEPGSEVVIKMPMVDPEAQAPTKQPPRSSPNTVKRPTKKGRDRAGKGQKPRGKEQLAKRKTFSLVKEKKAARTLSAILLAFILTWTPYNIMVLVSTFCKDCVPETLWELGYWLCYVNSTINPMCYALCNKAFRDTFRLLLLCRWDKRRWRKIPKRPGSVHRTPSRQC
human M5 receptor, sequence (P08912 whole entry): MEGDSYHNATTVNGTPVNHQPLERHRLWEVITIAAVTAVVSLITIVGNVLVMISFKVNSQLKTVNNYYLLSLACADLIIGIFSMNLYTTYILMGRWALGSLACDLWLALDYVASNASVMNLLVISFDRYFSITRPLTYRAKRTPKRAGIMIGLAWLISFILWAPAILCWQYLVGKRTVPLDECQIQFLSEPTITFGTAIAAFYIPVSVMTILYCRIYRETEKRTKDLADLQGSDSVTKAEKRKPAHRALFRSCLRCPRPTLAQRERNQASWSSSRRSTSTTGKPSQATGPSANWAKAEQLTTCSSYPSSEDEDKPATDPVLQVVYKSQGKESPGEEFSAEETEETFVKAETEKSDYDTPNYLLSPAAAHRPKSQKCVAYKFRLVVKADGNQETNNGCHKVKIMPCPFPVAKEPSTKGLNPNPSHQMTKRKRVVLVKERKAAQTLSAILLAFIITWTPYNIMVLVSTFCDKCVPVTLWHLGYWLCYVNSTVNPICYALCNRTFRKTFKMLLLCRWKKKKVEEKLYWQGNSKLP

| Ki (human M4 receptor) | Ki (human M3 receptor) | Ki (human M5 receptor) | Ki (human M2 receptor) | Ki (human M1 receptor) | Structure (SMILES) |
| --- | --- | --- | --- | --- | --- |
| < 10 nM | > 1000 nM | > 1000 nM | 10 to 100 nM | 100 to 1000 nM | O=C(NCCC1CCN(Cc2ccccc2)CC1)N1CCN(c2ncc(C(F)(F)F)cn2)CC1 [5-24, N-[2-(1-benzylpiperidin-4-yl)ethyl]-4-[5-(trifluoromethyl)pyrimidin-2-yl]piperazine-1-carboxamide] |
| < 10 nM | > 1000 nM | > 1000 nM | 100 to 1000 nM | 100 to 1000 nM | C[C@@H]1CN(c2ncc(C(F)(F)F)cn2)C[C@H](C)N1C(=O)NCCC1CCN(Cc2ccccc2)CC1 [5-27, (2R,6S)-N-[2-(1-benzylpiperidin-4-yl)ethyl]-2,6-dimethyl-4-[5-(trifluoromethyl)pyrimidin-2-yl]piperazine-1-carboxamide] |
| < 10 nM | > 1000 nM | > 1000 nM | 100 to 1000 nM | 100 to 1000 nM | C[C@@H]1CN(c2ncc(C(F)(F)F)c(N)n2)C[C@H](C)N1C(=O)NCCC1CCN(Cc2ccccc2)CC1 [5-28, (2R,6S)-4-[4-amino-5-(trifluoromethyl)pyrimidin-2-yl]-N-[2-(1-benzylpiperidin-4-yl)ethyl]-2,6-dimethylpiperazine-1-carboxamide] |
| < 10 nM | > 1000 nM | > 1000 nM | 100 to 1000 nM | > 1000 nM | Nc1nc(N2CCN(C(=O)NCCC3CCN(Cc4ccccc4)CC3)CC2)ncc1C(F)(F)F [5-30, 4-[4-amino-5-(trifluoromethyl)pyrimidin-2-yl]-N-[2-(1-benzylpiperidin-4-yl)ethyl]piperazine-1-carboxamide] |
| < 10 nM | 10 to 100 nM | 100 to 1000 nM | < 10 nM | 10 to 100 nM | C[C@@H]1CN(c2ncc(Br)cn2)CCN1C(=O)NCCC1CCN(Cc2ccccc2)CC1 [5-31, (2R)-N-[2-(1-benzylpiperidin-4-yl)ethyl]-4-(5-bromopyrimidin-2-yl)-2-methylpiperazine-1-carboxamide] |
| < 10 nM | > 1000 nM | > 1000 nM | 10 to 100 nM | > 1000 nM | C[C@@H]1CN(c2ncc(Cl)c(N)n2)CCN1C(=O)NCCC1CCN(Cc2ccccc2)CC1 [5-32, (2R)-4-(4-amino-5-chloropyrimidin-2-yl)-N-[2-(1-benzylpiperidin-4-yl)ethyl]-2-methylpiperazine-1-carboxamide] |
| < 10 nM | 100 to 1000 nM | 100 to 1000 nM | < 10 nM | 100 to 1000 nM | C[C@@H]1CN(c2cc(F)c(F)c(F)c2)CCN1C(=O)NCCC1CCN(Cc2ccc3[nH]ccc3c2)CC1 [6-1, (2R)-N-{2-[1-(1H-indol-5-ylmethyl)piperidin-4-yl]ethyl}-2-methyl-4-(3,4,5-trifluorophenyl)piperazine-1-carboxamide] |
| < 10 nM | 100 to 1000 nM | > 1000 nM | 10 to 100 nM | 100 to 1000 nM | C[C@@H]1CN(c2cc(F)c(F)c(F)c2)CCN1C(=O)NCCC1CCN(Cc2cccc3c2OCC3)CC1 [6-3, (2R)-N-{2-[1-(2,3-dihydro-1-benzofuran-7-ylmethyl)piperidin-4-yl]ethyl}-2-methyl-4-(3,4,5-trifluorophenyl)piperazine-1-carboxamide] |
| < 10 nM | > 1000 nM | > 1000 nM | 100 to 1000 nM | 100 to 1000 nM | C[C@@H]1CN(c2cc(F)c(F)c(F)c2)CCN1C(=O)NCCC1CCN(Cc2ccc(F)cc2)CC1 [6-4, (2R)-N-(2-{1-[(4-fluorophenyl)methyl]piperidin-4-yl}ethyl)-2-methyl-4-(3,4,5-trifluorophenyl)piperazine-1-carboxamide] |
| < 10 nM | > 1000 nM | > 1000 nM | 10 to 100 nM | 100 to 1000 nM | C[C@@H]1CN(c2cc(F)c(F)c(F)c2)CCN1C(=O)NCCC1CCN(Cc2cccs2)CC1 [6-26, (2R)-2-methyl-N-{2-[1-(thiophen-2-ylmethyl)piperidin-4-yl]ethyl}-4-(3,4,5-trifluorophenyl)piperazine-1-carboxamide] |
| < 10 nM | 100 to 1000 nM | > 1000 nM | 10 to 100 nM | 100 to 1000 nM | C[C@@H]1CN(c2cc(F)c(F)c(F)c2)CCN1C(=O)NCCC1CCN(Cc2ccc(O)cc2)CC1 [6-27, (2R)-N-(2-{1-[(4-hydroxyphenyl)methyl]piperidin-4-yl}ethyl)-2-methyl-4-(3,4,5-trifluorophenyl)piperazine-1-carboxamide] |
| < 10 nM | 100 to 1000 nM | > 1000 nM | 10 to 100 nM | 100 to 1000 nM | Cc1ccccc1CN1CCC(CCNC(=O)N2CCN(c3ncc(C(F)(F)F)cn3)C[C@H]2C)CC1 [6-35, (2R)-2-methyl-N-(2-{1-[(2-methylphenyl)methyl]piperidin-4-yl}ethyl)-4-[5-(trifluoromethyl)pyrimidin-2-yl]piperazine-1-carboxamide] |
| < 10 nM | > 1000 nM | > 1000 nM | 100 to 1000 nM | 100 to 1000 nM | C[C@@H]1CN(c2ncc(C(F)(F)F)cn2)CCN1C(=O)NCCC1CCN(Cc2cccc(F)c2)CC1 [6-36, (2R)-N-(2-{1-[(3-fluorophenyl)methyl]piperidin-4-yl}ethyl)-2-methyl-4-[5-(trifluoromethyl)pyrimidin-2-yl]piperazine-1-carboxamide] |
| < 10 nM | > 1000 nM | > 1000 nM | 10 to 100 nM | 100 to 1000 nM | C[C@@H]1CN(c2ncc(C(F)(F)F)cn2)CCN1C(=O)NCCC1CCN(Cc2ccc(F)cc2)CC1 [6-37, (2R)-N-(2-{1-[(4-fluorophenyl)methyl]piperidin-4-yl}ethyl)-2-methyl-4-[5-(trifluoromethyl)pyrimidin-2-yl]piperazine-1-carboxamide] |
| < 10 nM | 100 to 1000 nM | > 1000 nM | 10 to 100 nM | 100 to 1000 nM | C[C@@H]1CN(c2ncc(C(F)(F)F)cn2)CCN1C(=O)NCCC1CCN(Cc2cccc(C#N)c2)CC1 [6-40, (2R)-N-(2-{1-[(3-cyanophenyl)methyl]piperidin-4-yl}ethyl)-2-methyl-4-[5-(trifluoromethyl)pyrimidin-2-yl]piperazine-1-carboxamide] |
| < 10 nM | 100 to 1000 nM | > 1000 nM | 10 to 100 nM | > 1000 nM | C[C@@H]1CN(c2ncc(C#N)cn2)C[C@H](C)N1C(=O)NCCC1CCN(Cc2ccc(O)cc2)CC1 [6-42, (2R,6S)-4-(5-cyanopyrimidin-2-yl)-N-(2-{1-[(4-hydroxyphenyl)-methyl]piperidin-4-yl}ethyl)-2,6-dimethylpiperazine-1-carboxamide] |
| < 10 nM | > 1000 nM | > 1000 nM | < 10 nM | > 1000 nM | C[C@@H]1CN(c2ncc(C#N)cn2)C[C@H](C)N1C(=O)NCCC1CCN(Cc2cccc(F)c2)CC1 [6-46, (2R,6S)-4-(5-cyanopyrimidin-2-yl)-N-(2-{1-[(3-fluorophenyl)-methyl]piperidin-4-yl}ethyl)-2,6-dimethylpiperazine-1-carboxamide] |
| < 10 nM | 100 to 1000 nM | 100 to 1000 nM | < 10 nM | 100 to 1000 nM | C[C@@H]1CN(c2ncc(C#N)cn2)C[C@H](C)N1C(=O)NCCC1CCN(Cc2ccc3[nH]ccc3c2)CC1 [6-47, (2R,6S)-4-(5-cyanopyrimidin-2-yl)-N-{2-[1-(1H-indol-5-ylmethyl)-piperidin-4-yl]ethyl}-2,6-dimethylpiperazine-1-carboxamide] |
| < 10 nM | > 1000 nM | > 1000 nM | 10 to 100 nM | > 1000 nM | C[C@@H]1CN(c2ncc(C#N)cn2)C[C@H](C)N1C(=O)NCCC1CCN(Cc2ccc(F)cc2)CC1 [6-48, (2R,6S)-4-(5-cyanopyrimidin-2-yl)-N-(2-{1-[(4-fluorophenyl)methyl]-piperidin-4-yl}ethyl)-2,6-dimethylpiperazine-1-carboxamide] |
| < 10 nM | 100 to 1000 nM | > 1000 nM | 10 to 100 nM | 100 to 1000 nM | C[C@@H]1CN(c2cnc(C(F)(F)F)nc2)C[C@H](C)N1C(=O)NCCC1CCN(Cc2ccc3[nH]ccc3c2)CC1 [6-50, (2R,6S)-N-{2-[1-(1H-indol-5-ylmethyl)piperidin-4-yl]ethyl}-2,6-dimethyl-4-[2-(trifluoromethyl)pyrimidin-5-yl]piperazine-1-carboxamide] |
| < 10 nM | > 1000 nM | > 1000 nM | > 1000 nM | > 1000 nM | C[C@@H]1CN(c2cc(F)c(F)c(F)c2)CCN1C(=O)NCCC1(O)CCN(Cc2ccccc2)CC1 [7-1, (2R)-N-[2-(1-benzyl-4-hydroxypiperidin-4-yl)ethyl]-2-methyl-4-(3,4,5-trifluorophenyl)piperazine-1-carboxamide] |

| Structure (SMILES) | Ki (human M4 receptor) | Ki (human M3 receptor) | Ki (human M5 receptor) | Ki (human M2 receptor) | Ki (human M1 receptor) |
| --- | --- | --- | --- | --- | --- |
| C[C@@H]1CN(c2ncc(C(F)(F)F)c(N)n2)CCN1C(=O)NCCC1CCN(Cc2ccccc2)CC1 [5-29, (2R)-4-[4-amino-5-(trifluoromethyl)pyrimidin-2-yl]-N-[2-(1-benzylpiperidin-4-yl)ethyl]-2-methylpiperazine-1-carboxamide] | < 10 nM | > 1000 nM | > 1000 nM | 100 to 1000 nM | > 1000 nM |
